Source: patent publication US4871774A, “Medical treatment” (The Boots Company PLC, priority 1987, dated 1989)
Several values for one entry are separate records, joined by “and”; a condition that tells them apart may be missing. Identical values can stand only once.

Legend:
[1] = system: dopamine reuptake; depletion of brain dopamine; test: In vivo inhibition of dopamine reuptake (prevention of α-methyl-m-tyrosine-induced depletion of brain dopamine); set-up: species or system rat (Sprague-Dawley); conditions: oral, three doses
From the text: An in vivo test for dopamine reuptake inhibition relies on the fact that such reuptake inhibitors can prevent the entry of dopamine-depleting agents into neurons. Depleting agents interfere with the neuronal storage mechanism for dopamine so dopamine leaks into the cytoplasm where it is metabolised by monoamine oxidase. Depleting agents therefore induce a large reduction in brain dopamine levels which can be measured experimentally. Prior treatment with a dopamine reuptake inhibitor reduces the depletion of dopamine levels caused by subsequent administration of a depleting agent such as α-methyl-m-tyrosine.
Male Sprague-Dawley rats (180-220 g: Charles River) were randomly assigned to various treatment groups. […] Thirty minutes later, one vehicle treated group and all the test groups were given an i.p. injection (2 ml/kg) of the depleting agent α-methyl-m-tyrosine (25 mg/kg; Sigma Chemical Co.). […]
Brain samples were thawed and homogenised in 4 volumes of 0.4M perchloric acid containing sodium metabisulphite (0.4 mM) and the internal standard 3,4-dihydroxybenzylamine (0.8 μM). […] Supernatants were removed and their dopamine concentration determined using an HPLC (high pressure liquid chromatography) system with fluorimetric detection.
The percentage prevention (P) of depletion of brain dopamine levels by test compounds is calculated from the formula [formula] […]

[2] = system: uptake of dopamine into synaptosomes from rat striata; test: Inhibition of dopamine uptake in vitro by plasma from drug treated rats obtained over a period of time after a single 30 mg/kg dose; format: biochemical; conditions: for % Inhibition of dopamine uptake - Mean (± SEM): 30 mg/kg oral
Method: (4) Inhibition of dopamine uptake in vitro by plasma from drug treated rats obtained over a period of time after a single 30 mg/kg dose
The percentage inhibition of dopamine uptake was determined in a similar manner to that described in (3) above. […]

[3] = system: uptake of radiolabelled dopamine into freshly prepared synaptosomes from rat striatum; test: Inhibition of dopamine uptake in vitro by plasma from humans treated with drug (14C-dopamine, rat striatal synaptosomes); format: biochemical; conditions: plasma 3 h after 50 mg oral; for % Inhibition of dopamine uptake: hydrochloride monohydrate
Method: (5) Inhibition of dopamine uptake in vitro by plasma from humans treated with drug
The plasma was separated by centrifugation at 2900×g for 20 minutes at room temperature in a Heraeus Christ minicentrifuge and was stored at -20° C. prior to analysis. The samples were thawed in a water bath at 37° C. for 10-15 minutes prior to commencement of the in vitro dopamine uptake assay which was performed as described in (3) above except ^14 C-dopamine was used. The assay was performed twice on plasma from each volunteer.

[4] = system: brain DOPAC (turnover of dopamine); test: Turnover of dopamine in rodent brains by determination of DOPAC concentrations (mouse); format: in vivo, mouse (CD1); conditions: whole brain, 10 mg/kg oral, 2 h
From the text: (§1) (7) Measurement of the turnover of dopamine in rodent brains by determination of DOPAC concentrations following drug administration
(§2) Inhibition of dopamine reuptake in the brain reduces the rate at which dopamine is synthesised and metabolised (the turnover rate). This can be assessed by measuring the amount of the dopamine metabolite DOPAC (dihydroxyphenylacetic acid) which accumulates in the brains of rats and mice. In addition, the administration of probenecid blocks active transport of DOPAC out of the brain. The subsequent rise in brain DOPAC concentrations is attenuated by drugs which inhibit dopamine reuptake.
One group of animals was killed two hours later. […] Aliquots (50 μl) of the clear supernatants were then injected automatically into the chromatographic system for the separation and quantification of DOPAC.
High pressure liquid chromatography (HPLC) combined with electrochemical detection (ECD) was employed to assay DOPAC. […] The controller was set at 20 nA full-scale and output from the cell recorded using a Spectra-Physics 4100 automatic computing integrator. Quantification of DOPAC was effected by the computing integrator after calibration of the HPLC-ECD system using DOPAC of known concentration and including isoprenaline as an internal standard. […]

[5] = system: brain DOPAC (turnover of dopamine); test: Turnover of dopamine in rodent brains by determination of DOPAC concentrations (rat); format: in vivo, rat (Sprague-Dawley); conditions: 10 mg/kg oral, 2 h
From the text: as §1, §2
One group of animals was killed two hours later. An additional group was administered probenecid (200 mg/kg i.p.; Sigma Chemical Co.) 30 minutes after the drug and then killed after a further 90 minutes. The animals were killed by decapitation and brains were rapidly removed and dissected on an ice-chilled porcelain plate. They were cut longitudinally along the midline; one half was retained for whole brain analysis while the striatum was dissected from the other. Tissues were immediately frozen in liquid N2 and stored over dry ice (-80° C.) until assay. Whole brain tissue was homogenised in 5 volumes 0.4M perchloric acid (containing 0.01% (w/v) Na2 S2 O3, 0.1% (w/v) EDTA) and striata in 600 μl using a Polytron (setting 6; 20 seconds) fitted with a microprobe (PT-7). Samples were then centrifuged at 30,000×g (whole brain samples) or at 3,500×g (striata) using a microfuge (Beckman) set up to take 1200 μl polypropylene tubes. Aliquots (50 μl) of the clear supernatants were then injected automatically into the chromatographic system for the separation and quantification of DOPAC.
High pressure liquid chromatography (HPLC) combined with electrochemical detection (ECD) was employed to assay DOPAC. A mobile phase (0.1M CH3 OH (84:16%) containing 0.1% octanesulphonic acid, 0.1% EDTA and 0.01% Na2 S2 O3) was delivered by a Dupont 870 pump module at a flow-rate of 1.0 ml/min to a reverse-phase analytical column (25×0.4cm) and guard column (both packed with 5 μm Spherisorb ODS 2) maintained at 45° C. in a thermostatically controlled cabinet. Automatic sample injection was provided by a WISP 710B module (Waters Associates) and ECD was performed using a Bioanalytical Systems LC4A controller and cell, with a glassy carbon electrode maintained at +0.65 v versus a Ag-AgCl reference electrode. The controller was set at 20 nA full-scale and output from the cell recorded using a Spectra-Physics 4100 automatic computing integrator. Quantification of DOPAC was effected by the computing integrator after calibration of the HPLC-ECD system using DOPAC of known concentration and including isoprenaline as an internal standard. […]

Structure (SMILES): CC(C)CC(N(C)C)C1(c2ccc(Cl)cc2)CCC1.Cl.O (centres unmarked) [N,N-dimethyl-1-[1-(4-chlorophenyl)cyclobutyl]-3-methylbutylamine hydrochloride monohydrate]
- prevention of brain dopamine depletion (in words) [1]: dose-dependent prevention of brain dopamine depletion
- % Inhibition of dopamine uptake - Mean (± SEM) ([2]; 1 hr after dosing): 45.0 ± 4.1%
- % Inhibition of dopamine uptake - Mean (± SEM) ([2]; 3 hrs after dosing): 63.0 ± 1.7%
- % Inhibition of dopamine uptake - Mean (± SEM) ([2]; 8 hrs after dosing): 73.4 ± 3.5%
- % Inhibition of dopamine uptake - Mean (± SEM) ([2]; 24 hrs after dosing): 31.5 ± 2.4%
- % Inhibition of dopamine uptake - Mean (± SEM) ([2]; 48 hrs after dosing): 19.5 ± 5.2%
- % Inhibition of dopamine uptake - Mean (± SEM) ([2]; 72 hrs after dosing): 10.4 ± 1.6%
- persistence of inhibition of dopamine uptake by rat plasma (in words) ([2]; single 30 mg/kg oral dose): persists for a considerable period of time after dosing
- % Inhibition of dopamine uptake, Mean ([3]; Volunteer 1, mean of two assays): 11.6%
- % Inhibition of dopamine uptake, Mean ([3]; Volunteer 2, mean of two assays): 8.6%
- % Inhibition of dopamine uptake, Mean ([3]; Volunteer 3, mean of two assays): 15.7%
- % Inhibition of dopamine uptake ([3]; Volunteer 3, single assays (performed twice)): 13.4% and 17.9%
- % Inhibition of dopamine uptake, Mean ([3]; Volunteer 4, mean of two assays): 17.9%
- % Inhibition of dopamine uptake, Mean ([3]; Volunteer 5, mean of two assays): 15.7%
- % Inhibition of dopamine uptake ([3]; Volunteer 5, single assays (performed twice)): 13.0% and 18.4%
- % Inhibition of dopamine uptake, Mean ([3]; Volunteer 6, mean of two assays): 16.1%
- mean (±SEM) % inhibition of 14C-dopamine uptake by plasma from the six drug-treated volunteers ([3]; mean of six volunteers): 14.2±1.4%
- Brain DOPAC Levels ([4]; A (drug alone), control 74 ± 5): 54 ± 3 ng/g wet wt
- Brain DOPAC Levels ([4]; B (with probenecid 200 mg/kg i.p.), control 116 ± 8): 54 ± 3 ng/g wet wt
- Brain DOPAC Levels ([5]; A (drug alone), striatum, control 921 ± 56): 601 ± 17 ng/g wet wt
- Brain DOPAC Levels ([5]; A (drug alone), whole brain, control 62 ± 5): 36 ± 4 ng/g wet wt
- Brain DOPAC Levels ([5]; B (with probenecid 200 mg/kg i.p.), striatum, control 1325 ± 79): 920 ± 70 ng/g wet wt
- Brain DOPAC Levels ([5]; B (with probenecid 200 mg/kg i.p.), whole brain, control 169 ± 3): 130 ± 9 ng/g wet wt
